Columns and labels:
[1] = target: T1, CYP2D4 (Rattus norvegicus, UniProt Q64680); test: CYP inhibition in rat liver microsomes, substrate cocktail, LC-MS/MS (dextromethorphan); format: in vitro ADME; settings: pH 7.4, probe dextromethorphan 5 μM, read-out: IC50 for RLM, CYP2D4 (table row CYP2D6)
T1 sequence (Q64680 1-500): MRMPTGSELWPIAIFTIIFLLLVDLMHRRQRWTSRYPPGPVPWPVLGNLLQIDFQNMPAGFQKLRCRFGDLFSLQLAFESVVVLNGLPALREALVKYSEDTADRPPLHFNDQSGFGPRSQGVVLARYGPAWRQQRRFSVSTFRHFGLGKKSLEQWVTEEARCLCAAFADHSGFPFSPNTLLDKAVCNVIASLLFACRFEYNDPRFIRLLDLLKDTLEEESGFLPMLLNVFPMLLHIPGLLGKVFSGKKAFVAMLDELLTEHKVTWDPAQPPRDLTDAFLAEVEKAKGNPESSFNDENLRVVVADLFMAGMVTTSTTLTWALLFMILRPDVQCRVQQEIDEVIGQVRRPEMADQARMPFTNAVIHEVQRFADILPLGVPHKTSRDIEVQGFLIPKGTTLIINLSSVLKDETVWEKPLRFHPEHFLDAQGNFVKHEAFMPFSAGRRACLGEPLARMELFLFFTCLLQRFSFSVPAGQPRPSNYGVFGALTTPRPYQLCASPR
Source text: (§1) Positive controls (furafyline for CYP1A2, montelukast for CYP2C8, sulfaphenazole for CYP2C9, S-(+)-N-3-benzylnirvanol for CYP2C19, quinidine for CYP2D6, ketoconazole for CYP3A4) and specific substrates (phenacetin for CYP1A2, paclitaxel for CYP2C8, diclofenac for CYP2C9, S-mephenytoin for CYP2C19, dextromethorphan for CYP2D6, midazolam for CYP3A4) are consistent with our previous papers. The substrates were used at concentrations approximately equal to their respective Michaelis-Menten constant (Km) values: 10 μM phenacetin, 5 μM paclitaxel, 5 μM diclofenac, 200 μM S-mephenytoin, 5 μM dextromethorphan, and 2 μM midazolam. NADP^+ was added after a 15 min preincubation of all other components at 37 °C. After a given incubation time (30 min), the reactions were terminated by addition of 60 μL ice-cold acetonitrile containing gemfibrozil and buspirone as internal standards. Incubation samples were stored at −80 °C until used in liquid chromatography-tandem mass spectrometry (LC-MS/MS) analysis. The mixture was centrifuged at 3,500 rpm for 5 min. The supernatant was mixed with equal volume of a 1:1 mixture of methanol and water and 20 μL of the final mixture was used for LC-MS/ MS analysis. […]
(§2) The CYP inhibition potential were evaluated by measuring the formation of one or more metabolites of the test substrates. […]

[2] = target: T2, CYP3A2 (Rattus norvegicus, UniProt P05183); test: CYP inhibition in rat liver microsomes, substrate cocktail, LC-MS/MS (midazolam); format: in vitro ADME; settings: pH 7.4, probe midazolam 2 μM, read-out: IC50 for RLM, CYP3A2 (table row CYP3A4)
T2 sequence (P05183 1-504): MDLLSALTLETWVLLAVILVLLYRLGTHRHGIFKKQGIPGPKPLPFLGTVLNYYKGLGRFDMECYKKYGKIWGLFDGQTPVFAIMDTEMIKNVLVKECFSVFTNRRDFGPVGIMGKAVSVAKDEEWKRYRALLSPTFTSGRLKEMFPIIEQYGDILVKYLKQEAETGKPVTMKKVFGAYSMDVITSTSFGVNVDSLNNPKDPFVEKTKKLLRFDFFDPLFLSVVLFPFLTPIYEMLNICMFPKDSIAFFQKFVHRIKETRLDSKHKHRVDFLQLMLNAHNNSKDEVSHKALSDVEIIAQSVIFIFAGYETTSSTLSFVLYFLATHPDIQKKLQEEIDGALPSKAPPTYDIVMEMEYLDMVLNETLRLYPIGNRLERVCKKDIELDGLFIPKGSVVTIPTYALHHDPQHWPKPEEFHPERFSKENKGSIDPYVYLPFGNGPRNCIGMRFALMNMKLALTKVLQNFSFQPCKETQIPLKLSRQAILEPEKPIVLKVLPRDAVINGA
Source text: as §1, §2

Question: How did the IC50 at 30 min [1] turn out when `O=C(O)[C@H]1O[C@@H](Oc2cc3oc(-c4ccc(O)cc4)cc(=O)c3c(O)c2O)[C@H](O)[C@@H](O)[C@@H]1O` [scutellarin, Scutellarin] was run?
Answer: Its IC50 at 30 min is > 100 µM.

Question: And the IC50 at 30 min [2]?
Answer: Its IC50 at 30 min is > 100 µM.
